Values quoted from earlier work in patent publication US7332498B2, “Modulation of KSP kinesin activity with heterocyclic-fused pyrimidinone derivatives” (Cytokinetics, Inc., priority 2002, dated 2008).

Tested on: A549 cells
Details: data provided by National Cancer Institute, Developmental Therapeutic Program

Row | SMILES | GI50 [nM]
1 | O=c1[nH]cc(F)c(=O)[nH]1 [5-fluorouracil] | 1000
2 | COc1cccc2c1C(=O)c1c(O)c3c(c(O)c1C2=O)C[C@@](O)(C(=O)CO)C[C@@H]3O[C@H]1C[C@H](N)[C@H](O)[C@H](C)O1 [doxorubicin] | 63
3 | NC(=O)NO [hydroxyurea] | 500000
4 | CC(=O)O[C@H]1C(=O)[C@@]2(C)[C@H]([C@H](OC(=O)c3ccccc3)[C@]3(O)C[C@H](OC(=O)[C@H](O)[C@@H](NC(=O)c4ccccc4)c4ccccc4)C(C)=C1C3(C)C)[C@]1(OC(C)=O)CO[C@@H]1C[C@@H]2O [paclitaxel] | 4
